Legend:
MCF7 [1] = assay: Cytotoxicity against human MCF7 cells by MTT assay; format: functional, cell-based
MDA-MB-231 [2] = assay: Cytotoxicity against human MDA-MB-231 cells MTT assay; format: functional, cell-based
HepG2 = assay: Cytotoxicity against human HepG2 cells MTT assay; format: functional, cell-based
MCF7 [3] = assay: Drug uptake in human MCF7 cells by flow cytometry; format: ADME, cell-based
MDA-MB-231 [4] = assay: Drug uptake in human MDA-MB-231 cells by flow cytometry; format: ADME, cell-based

SMILES	IC50 (MCF7 [1]) [µM]	IC50 (MDA-MB-231 [2]) [µM]	IC50 (HepG2) [µM]	Drug uptake (MCF7 [3])	Drug uptake (MDA-MB-231 [4])
CC/C=C\C/C=C\C/C=C\CCCCCCCC(=O)N[C@H]1C[C@H](O[C@H]2C[C@](O)(C(=O)CO)Cc3c(O)c4c(c(O)c32)C(=O)c2c(OC)cccc2C4=O)O[C@@H](C)[C@H]1O	4.7	3.1	6.8	Dose-dependent effect	Dose-dependent effect
COc1cccc2c1C(=O)c1c(O)c3c(c(O)c1C2=O)C[C@@](O)(C(=O)CO)C[C@@H]3O[C@H]1C[C@H](N)[C@H](O)[C@H](C)O1 [DOXORUBICIN]	–	10.2	14.3	Dose-dependent effect	Dose-dependent effect
